Source: US20090325952A1, “PYRAZOLO[3,4-B]PYRIDINE COMPOUNDS, AND THEIR USE AS PDE4 INHIBITORS” (Glaxo Group Limited, priority 2006, published 2009)
Structures can show the parent of a compound that is named as a salt.

Assays:
[1] = biological target: T1, PDE4B (human recombinant) (Homo sapiens, UniProt Q07343); assay: Inhibition of PDE4B activity (FP and/or SPA assay); type: biochemical; conditions: generally FP assay; one reading or average of n readings; read-out: PDE4B pIC50 (generally in FP assay) (±about 0.5) (converted)
T1 construct: made in house; host or cells: Saccharomyces cerevisiae strain GL62 (PDE-deficient yeast)
T1 sequence (Q07343 1-564 isoform Q07343-2): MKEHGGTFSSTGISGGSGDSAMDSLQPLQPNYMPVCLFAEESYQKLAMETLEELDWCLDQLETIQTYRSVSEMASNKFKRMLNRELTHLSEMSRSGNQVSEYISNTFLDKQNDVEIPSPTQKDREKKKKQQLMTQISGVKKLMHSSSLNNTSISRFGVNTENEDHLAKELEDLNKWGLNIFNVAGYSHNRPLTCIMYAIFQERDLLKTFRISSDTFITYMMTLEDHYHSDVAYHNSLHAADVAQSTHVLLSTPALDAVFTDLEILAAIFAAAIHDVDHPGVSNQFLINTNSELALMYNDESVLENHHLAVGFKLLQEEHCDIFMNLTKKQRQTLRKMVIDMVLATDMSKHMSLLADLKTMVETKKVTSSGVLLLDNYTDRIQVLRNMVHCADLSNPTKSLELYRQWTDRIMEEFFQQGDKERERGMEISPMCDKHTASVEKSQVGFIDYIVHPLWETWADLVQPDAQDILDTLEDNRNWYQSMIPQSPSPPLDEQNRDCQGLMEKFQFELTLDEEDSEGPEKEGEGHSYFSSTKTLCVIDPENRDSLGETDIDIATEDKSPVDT
Source text: Human recombinant PDE4B, in particular the 2B splice variant thereof (HSPDE4B2B), is disclosed in WO 94/20079 and also M. M. McLaughlin et al., “A low Km, rolipram-sensitive, cAMP-specific phosphodiesterase from human brain: cloning and expression of cDNA, biochemical characterisation of recombinant protein, and tissue distribution of mRNA”, J. Biol. Chem., 1993, 268, 6470-6476. For example, in Example 1 of WO 94/20079, human recombinant PDE4B is described as being expressed in the PDE-deficient yeast Saccharomyces cerevisiae strain GL62, e.g. after induction by addition of 150 uM CuSO4, and 100,000×g supernatant fractions of yeast cell lysates are described for use in the harvesting of PDE4B enzyme.
The ability of compounds to inhibit catalytic activity at PDE4B or 4D (human recombinant), PDE3 (from bovine aorta), PDE5 (human recombinant) or PDE6 (from bovine retina) can optionally be determined by Scintillation Proximity Assay (SPA) in a 96-well format.
Test compounds (as a solution in DMSO, suitably about 2 microlitre (ul) volume of DMSO solution) are preincubated at ambient temperature (room temperature, e.g. 19-23° C.) in Wallac Isoplates (code 1450-514) with PDE enzyme in 50 mM Tris-HCl buffer pH 7.5, 8.3 mM MgCl2, 1.7 mM EGTA, 0.05% (w/v) bovine serum albumin for 10-30 minutes (usually 30 minutes). The enzyme concentration is adjusted so that no more than 20% hydrolysis of the substrate defined below occurs in control wells without compound, during the incubation. For the PDE3, PDE4B and PDE4D assays, [5′,8-^3H]Adenosine 3′,5′-cyclic phosphate (Amersham Pharmacia Biotech, code TRK.559; or Amersham Biosciences UK Ltd, Pollards Wood, Chalfont St Giles, Buckinghamshire HP8 4SP, UK) is added to give 0.05uCi per well and about 10 nM final concentration. For the PDE5 and PDE6 assays, [8^−3H]Guanosine 3′,5′-cyclic phosphate (Amersham Pharmacia Biotech, code TRK.392) is added to give 0.05uCi per well and about 36 nM final concentration. Plates containing assay mixture, suitably approx. 100 ul volume of assay mixture, are mixed on an orbital shaker for 5 minutes and incubated at ambient temperature for 1 hour. Phosphodiesterase SPA beads (Amersham Pharmacia Biotech, code RPNQ 0150) are added (about 1 mg per well) to terminate the assay. Plates are sealed and shaken and allowed to stand at ambient temperature for 35 minutes to 1 hour (suitably 35 minutes) to allow the beads to settle. Bound radioactive product is measured using a WALLAC TRILUX 1450 Microbeta scintillation counter. For inhibition curves, 10 concentrations (e.g. 1.5 nM-30 uM) of each compound are assayed. Curves are analysed using ActivityBase and XLfit (ID Business Solutions Limited, 2 Ocean Court, Surrey Research Park, Guildford, Surrey GU2 7QB, United Kingdom) Results are expressed as pIC50 values.
The ability of compounds to inhibit catalytic activity at PDE4B (human recombinant) or PDE4D (human recombinant) can optionally be determined by IMAP Fluorescence Polarisation (FP) assay (IMAP Explorer kit, available from Molecular Devices Corporation, Sunnydale, Calif., USA; Molecular Devices code: R8062) in 384-well format.
The IMAP FP assay is able to measure PDE activity in an homogenous, non-radioactive assay format. The FP assay uses the ability of immobilised trivalent metal cations, coated onto nanoparticles (tiny beads), to bind the phosphate group of Fl-AMP that is produced on the hydrolysis of fluorescein-labelled (Fl) cyclic adenosine mono-phosphate (Fl-cAMP) to the non-cyclic Fl-AMP form. […] Binding of Fl-AMP product to the beads (coated with the immobilised trivalent cations) slows the rotation of the bound Fl-AMP and leads to an increase in the fluorescence polarisation ratio of parallel to perpendicular light. Inhibition of the PDE reduces/inhibits this signal increase. […]

[2] = system: LPS-induced pulmonary neutrophilia in rats; assay: In Vivo Assay 1: LPS induced pulmonary neutrophilia in rats, intratracheal administration; parameters: species or system rat; conditions: preliminary tests
Source text: This assay is an animal model of acute inflammation in the lung—specifically neutrophilia induced by lipopolysaccharide (LPS)—and allows the study of putative inhibition of such neutrophilia (anti-inflammatory effect) by an intratracheally (i.t.) administered PDE4 inhibitor (“drug”). The PDE4 inhibitors are suitably in dry powder, aqueous solution or aqueous suspension form. I.t. administration is one model of inhaled administration, allowing topical delivery to the lung.
Animals: Male CD (Sprague Dawley Derived) rats supplied by Charles River, United Kingdom are housed in groups of 5 rats per cage, acclimatised after delivery for at least 7 days with bedding/nesting material regularly changed, fed on SDS diet R1 pelleted food given ad lib, and supplied with daily-changed pasteurised animal grade drinking water.
Device for dry powder administration: For these studies, a Penn Century DP-4 dry powder intratracheal (i.t.) delivery device (insufflator) is used for administration of a dry powder blend of vehicle (inhalation grade lactose) and the PDE4 inhibitor compound or salt of the invention (“drug”). Each device is numbered and the sample loading chamber is unscrewed from the main device and weighed. The i.t. delivery needle is also weighed. The drug+lactose blend or inhalation grade lactose (vehicle control) is then added to the sample chamber and this is then re-weighed. The sample chamber is fitted back on to the main device to prevent any drug being lost. This procedure is repeated for all of the Penn century devices to be used in the study (one separate device for each animal). After dosing to the animals, the sample chambers and needles are re-weighed in order to determine the amount of sample that was expelled from the device.
Device for aqueous solution administration: A blunt dosing needle, whose forward end is slightly angled to the needle axis, is used, with a flexible plastic portex canula inserted into the needle. The portex cannula is inserted into the lumen of the blunt stainless steel dosing needle and this is carefully inserted into the back of the animal's throat and into the trachea via the larynx. A known volume (200 microlitres) of the vehicle (0.2% Tween 80™ in saline) or of the solution (or suspension) drug composition is administered into the trachea using a plastic syringe that is attached to the portex cannula and dosing needle. A new internal cannula is used for each different drug group. After dosing, the needle is removed from the trachea and the animals are removed from the table and continually observed until they recover from the effects of anaesthesia. The animals are then returned to the holding cages and given free access to food and water, and are observed and any unusual behavioural changes noted. (Aqueous suspensions can be handled generally similarly.)
Drugs and Materials: Lipopolysaccharide (LPS) (Serotype:0127:B8, e.g. from Sigma, UK; e.g. L3129 prepared by phenol extraction) is dissolved in phosphate-buffered saline (PBS).
For dry powder, aqueous solution or aqueous suspension administration, PDE4 inhibitors are preferably used in size-reduced (e.g. micronised) form, for example according to the Micronisation Example(s) disclosed herein.
For dry powder administration of the drug, the PDE4 inhibitor compound or salt of the invention (drug) is administered as a dry powder blended with inhalation-grade (respiratory-grade) lactose, i.e. as a dry powder composition. The target quantity of dry powder composition administered i.t. to each animal is 2 mg. This remains constant throughout the studies. To achieve different doses, blends of the drug dry powder and lactose, containing different concentrations of the PDE4 inhibitor compound or salt of the invention (drug), are prepared. […]

Row | IC50 [1] [nM] | Structure (SMILES) | duration of action in i.t. rat LPS-induced neutrophilia model ([2]; after i.t. administration to the rat as a dry powder) [h] | duration of action in i.t. rat LPS-induced neutrophilia model ([2]; after i.t. administration to the rat as an aqueous solution) [h]
1 | ~0.0501 | CCc1nc2c(cnn2CC)c(NC2CCOCC2)c1CNC(=O)c1ccc(NC(=O)CCCCCCCN(C)CCO)cc1 [Example 1C, N-{[1,6-diethyl-4-(tetrahydro-2H-pyran-4-ylamino)-1H-pyrazolo[3,4-b]pyridin-5-yl]methyl}-4-({8-[(2-hydroxyethyl)(methyl)amino]octanoyl}amino)benzamide] | – | –
2 | ~0.0501 | CCc1nc2c(cnn2CC)c(NC2CCOCC2)c1CNC(=O)c1ccc(NC(=O)CCCCCCCN2CCC[C@@H]2COC)cc1 [Example 11, N-{[1,6-diethyl-4-(tetrahydro-2H-pyran-4-ylamino)-1H-pyrazolo[3,4-b]pyridin-5-yl]methyl}-4-[(8-{(2R)-2-[(methyloxy)methyl]-1-pyrrolidinyl}octanoyl)amino]benzamide trifluoroacetate] | – | –
3 | ~0.0316 | CCc1nc2c(cnn2CC)c(NC2CCOCC2)c1CNC(=O)c1ccc(NC(=O)CCCCCCCN2CCC[C@H]2COC)cc1 [Example 12, N-{[1,6-diethyl-4-(tetrahydro-2H-pyran-4-ylamino)-1H-pyrazolo[3,4-b]pyridin-5-yl]methyl}-4-[(8-{(2S)-2-[(methyloxy)methyl]-1-pyrrolidinyl}octanoyl)amino]benzamide trifluoroacetate] | – | –
4 | ~0.158 | CCc1nc2c(cnn2CC)c(NC2CCOCC2)c1CNC(=O)c1ccc(NC(=O)CCCCCCCN2CCOCC2)cc1 [Example 17, formate salt of N-{[1,6-diethyl-4-(tetrahydro-2H-pyran-4-ylamino)-1H-pyrazolo[3,4-b]pyridin-5-yl]methyl}-4-{[8-(4-morpholinyl)octanoyl]amino}benzamide] | – | –
5 | ~0.1 | CCc1nc2c(cnn2CC)c(NC2CCOCC2)c1CNC(=O)c1ccc(CCCCOCCCCN2CCOCC2)cc1 [Example 20, formate salt of N-{[1,6-diethyl-4-(tetrahydro-2H-pyran-4-ylamino)-1H-pyrazolo[3,4-b]pyridin-5-yl]methyl}-4-(4-{[4-(4-morpholinyl)butyl]oxy}butyl)benzamide] | – | –
6 | ~0.0631 | CCc1nc2c(cnn2CC)c(NC2CCOCC2)c1CNC(=O)c1ccc(CCCCOCCCCN2CCCC2)cc1 [Example 21, formate salt of N-{[1,6-diethyl-4-(tetrahydro-2H-pyran-4-ylamino)-1H-pyrazolo[3,4-b]pyridin-5-yl]methyl}-4-(4-{[4-(1-pyrrolidinyl)butyl]oxy}butyl)benzamide] | – | –
7 | ~0.0794 | CCc1nc2c(cnn2CC)c(NC2CCOCC2)c1CNC(=O)c1ccc(NC(=O)CCCCCN(C)CCO)cc1 [Example 31, N-{[1,6-diethyl-4-(tetrahydro-2H-pyran-4-ylamino)-1H-pyrazolo[3,4-b]pyridin-5-yl]methyl}-4-({6-[(2-hydroxyethyl)(methyl)amino]hexanoyl}amino)benzamide] | – | –
8 | ~1 | CCc1nc2c(cnn2CC)c(NC2CCOCC2)c1CNC(=O)c1ccc(NC(=O)CCCCCCCCCCN(C)CCO)cc1 [Example 34, N-{[1,6-diethyl-4-(tetrahydro-2H-pyran-4-ylamino)-1H-pyrazolo[3,4-b]pyridin-5-yl]methyl}-4-({11-[(2-hydroxyethyl)(methyl)amino]undecanoyl}amino)benzamide] | – | –
9 | – | CCc1nc2c(cnn2CC)c(NC2CCOCC2)c1CNC(=O)c1ccc(NC(=O)CCCCCCCN(C)CCO)cc1 [N-{[1,6-diethyl-4-(tetrahydro-2H-pyran-4-ylamino)-1H-pyrazolo[3,4-b]pyridin-5-yl]methyl}-4-({8-[(2-hydroxyethyl)(methyl)amino]octanoyl}amino)benzamide] | 4 | ≥ 2
